Measured values reported in patent publication US20220267376A1, “P53 ACTIVATOR PEPTIDOMIMETIC MACROCYCLES” (Merck Sharp & Dohme Corp., priority 2019, published 2022).
Positions of bridges follow the written chain, without caps; N, C: chain ends. Non-standard residues stand in square brackets, D forms with d. No end group written: not given here. dPhe(4-CF3) = N[C@H](Cc1ccc(C(F)(F)F)cc1)C(=O)O; dTrp(6-F) = N[C@H](Cc1c[nH]c2cc(F)ccc12)C(=O)O; R5 = C=CCCC[C@@](C)(N)C(=O)O

Legend:
[1] = target: MDM4 protein (human) (UniProt O15151); assay: fluorescence polarization assay on MDM4 (anisotropy falls with the peptide concentration; the labeled tracer used with MDM4 is not given)
[2] = target: T1, human MDM2 protein (amino acids 1-125) (Homo sapiens, UniProt Q00987); assay: SPR, biotinylated MDM2 on streptavidin, peptide as analyte
[3] = target: MDM4 protein (human) (UniProt O15151); assay: fluorescence polarization, MDM4
[4] = target: T1, human MDM2 protein (amino acids 1-125); assay: fluorescence anisotropy competition: unlabeled peptide titrated against the complex of MDM2 (250 nM) and FAM-labeled 12/1 peptide (50 nM)
[5] = target: T1, human MDM2 protein (amino acids 1-125); assay: fluorescence polarization, MDM2
[6] = tested on: HCT116 p53 reporter cells; assay: p53 beta-lactamase reporter gene assay; format: cell-based; settings: read-out: P53 activity EC50 (μM) (2% FBS) 16 H; HCT116 p53 reporter, 2% FBS, 16 H
Experimental: The cells were incubated overnight and followed by removal of cell growth media and replaced with Opti-MEM either containing 0% FBS or 10% FBS. […] Measurements were done using Envision multiplate reader (Perkin-Elmer).

[7] = tested on: Jump-In™ T-REx™ CHO-K1 BLA cells; assay: Tetracycline beta-lactamase reporter gene assay (counterscreen); format: cell-based; settings: for EC50: read-out: Counterscreen EC50 (μM) (2% FBS) 16 H, 2% FBS, 16 H
Experimental: Cells were seeded into a 384-well plate a density of 4000 cells per well. […] Measurements were carried out using Envision multiplate reader (Perkin-Elmer).

[8] = tested on: HCT116 cells; assay: Lactate dehydrogenase (LDH) release assay; format: cell-based; settings: up to 50 μM
Experimental: The cells were incubated overnight followed by removal of cell media and addition of Opti-MEM Medium without FBS. Cells were then treated with peptides for 4/16 hours in Opti-MEM either in 10% FBS or serum free. Final concentration of DMSO was 0.5%. […] Measurements were carried out using Tecan plate reader.

[9] = tested on: HCT-116 cells; assay: HCT-116 western blot analysis (p53, MDM2, p21); format: cell-based; settings: 6.123, 12.5 and 25 μM, 4 or 24 hours
Experimental: Preparation of compound Stock and working Solutions: 10 mM or 1 mM stock solutions of compounds were prepared in 100% DMSO. Each compound was then serially diluted in 100% DMSO and further diluted 10-fold into HPLC grade sterile water to prepare 10× working solutions in 10% DMSO/water of each compound. Depending on the required volume used in the relevant assay, compounds were added to yield final concentrations as indicated in the relevant figure with a residual DMSO concentration of 1% v/v.
HCT116 cells (Thermo Fisher Scientific) were cultured in DMEM cell media, which was supplemented with 10% foetal calf serum (FBS) and penicillin/streptomycin. All cell lines were maintained in a 37° C. humidified incubator with 5% CO2 atmosphere. HCT116 cells were seeded into 96 well plates at a cell density of 60,000 cells per well and incubated overnight. Cells were also maintained in DMEM cell media with 10% fetal bovine serum (FBS) and penicillin/streptomycin. Cell media was then removed and replaced with cell media containing the various compounds/vehicle controls at the concentrations indicated in DMEM cell media with 2% FCS, After the stated incubation time (4 or 24 hours) cells were rinsed with PBS and then harvested in 100 μl of × NuPAGE LDS sample buffer supplied by Invitrogen (NP0008). […] Protein concentrations were measured by BCA assay (Pierce). […]

[10] = target: T2, MDM2 (Homo sapiens, UniProt Q00987); assay: Surface plasmon resonance (SPR) binding to MDM2; settings: MDM2
T2 construct: GST (N); His6 (N); made in house; host or cells: E. coli BL21 (DE3) Rosetta T1R
Experimental: SPR experiments were performed with Biacore T100 (GE Healthcare) at 25° C. […] SPR buffer consisted of PBS pH 7.2, 1 mM DTT, 0.01% Tween 20, and 3% DMSO. The CMS chip was first conditioned with 100 mM HCl, followed by 0.1% SIDS, 50 mM NaOH and then water, all performed twice with 6 second injection at a flow rate of 100 μL/min. With the flow rate set to 10 μL/minutes, streptavidin (S4762. Sigma-Aldrich) was immobilized on the conditioned chip through amine coupling as described in the Biacore manual. Excess protein was removed by 30 second injection of the wash solution (50 mM NaOH+1M NaCl) for at least 8 times. The immobilized levels are 3400-3700 RU. The biotinylated MDM2 were captured to the streptavidin, to a level of ˜400 RU for MDM2. Flow cell consisted of only streptavidin was used as the reference surface. Using a flow rate of 30 μL/minutes, peptides dissolved in the SPR buffer are injected for 180 sec. The dissociation was monitored for 300 seconds. […] For single-cycle kinetics, five peptide concentrations were injected consecutively for 180 seconds, followed by a 4000 second dissociation. Similar injection of SPR buffer was followed to allow the surface to be regenerated, though not completely. After the run, responses from the target protein surface are transformed by (i) correcting with DMSO calibration curve, (ii) subtracting the responses obtained from the reference surface, and (iii) subtracting the responses of buffer injections from those of peptide injections. The last step is known as double referencing which corrects the systematic artefacts. The resulting responses were subjected to kinetic analysis by global fitting with 1:1 binding model.

[11] = target: T3, MDM4 (Homo sapiens, UniProt O15151); assay: Fluorescence polarization (FP) binding to MDM4/MDMX; settings: FP assay, MDM4 (MDMX)
T3 construct: GST; made in house
T3 sequence (O15151 1-490): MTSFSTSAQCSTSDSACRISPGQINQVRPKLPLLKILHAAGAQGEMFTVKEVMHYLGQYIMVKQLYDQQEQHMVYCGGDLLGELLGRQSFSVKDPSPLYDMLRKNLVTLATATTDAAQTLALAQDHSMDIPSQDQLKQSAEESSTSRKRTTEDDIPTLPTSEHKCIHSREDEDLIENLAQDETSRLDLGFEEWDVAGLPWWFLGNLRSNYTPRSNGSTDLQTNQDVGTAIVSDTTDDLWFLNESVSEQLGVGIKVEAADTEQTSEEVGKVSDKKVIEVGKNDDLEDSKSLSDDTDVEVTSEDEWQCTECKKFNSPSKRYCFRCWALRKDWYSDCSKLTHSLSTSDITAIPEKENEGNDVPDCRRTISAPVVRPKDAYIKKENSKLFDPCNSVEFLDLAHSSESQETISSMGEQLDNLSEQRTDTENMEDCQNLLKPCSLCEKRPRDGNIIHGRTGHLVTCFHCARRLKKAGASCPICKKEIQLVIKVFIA

[12] = Circular dichroism (CD) helicity of peptide in solution; format: physicochemical; settings: 25° C.
Experimental: Prior to the experiment, 5 μl of the 10 mM stock peptide was mixed with 45 μl of 100% methanol, and dried for 2 hours in the SpeedVac concentrator (Thermo Scientific). The dried peptide was reconstituted in buffer, containing 1 mM HEPES pH 7.4 and 5% methanol, to a concentration of 1 mM. The peptide sample was placed in a quartz cuvette with a path length of 0.2 cm and the CD spectrum was recorded from 300 to 190 nm at 25° C., using the Chirascan-plus qCD machine (Applied Photophysics). […] An estimate of the secondary stmcture components of the peptide was carried out by converting the CD spectrum to mean residue ellipticity, before deconvoluting using the CDNN software (distributed by Applied Photophysics). All experiments were done in duplicates.

[13] = target: T1, human MDM2 protein (amino acids 1-125); assay: fluorescence polarization competition, FAM-12/1 tracer, MDM2; FP assay: no binding, Kd capped at 10000 nM
[14] = target: T1, human MDM2 protein (amino acids 1-125); assay: cell-based or functional assay

T1 sequence (Q00987 1-125 limits assumed): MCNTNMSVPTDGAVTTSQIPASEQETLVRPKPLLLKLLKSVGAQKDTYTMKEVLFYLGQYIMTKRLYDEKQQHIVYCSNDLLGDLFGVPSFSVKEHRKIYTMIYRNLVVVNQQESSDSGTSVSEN
T2 sequence (Q00987 1-125): as the sequence (Q00987 1-125 limits assumed) above

Q: What does the source list for ATSP-7041 (peptide)?
A: IC50 (read off the curve) [1]: 1000 nM; Kd [2]: < 1 nM; Kd [3]: 4.5 nM; IC50 (read off the curve) [4]: 500 nM; Kd [5]: 2 nM

Q: Which EC50 [6] does the source give for CC(C)C[C@H]1NC(=O)[C@@H](CCCCN)NC(=O)[C@@H](CCC(=O)O)NC(=O)[C@@H](Cc2ccc(C(F)(F)F)cc2)NC(=O)[C@@H](CC(N)=O)NC(=O)[C@]2(CCC/C=C\CCCCCC[C@](C)(C(N)=O)NC(=O)[C@@H](CC(C)C)NC1=O)CCC/C=C\CCC[C@@](C)(N)C(=O)N[C@H](C)C(=O)N[C@H](Cc1c[nH]c3cc(F)ccc13)C(=O)N[C@H](Cc1ccc(O)cc1)C(=O)N2 [^DPMI-δ (1-5-12)] here?
A: 4 µM

Q: What about the “counterscreen activity” value [7] of the same molecule?
A: negligible counter screen activity

Q: And the EC50 [7]?
A: ≥ 50 µM

Q: And the “LDH leakage” value [8]?
A: No detectable LDH leakage

Q: And the “Western blot: stabilization of MDM2 and activation of p53” value [9]?
A: Stabilization of MDM2 and activation of p53

Q: What about the Kd ([10]; Table 1) of the same molecule?
A: < 1 nM

Q: And the Kd ([10]; Table 2)?
A: < 1 nM

Q: And the Kd [11]?
A: 12.5 nM

Q: And the “CD (% helicity)” value [12]?
A: 52.1%

Q: What about the “CD (% helicity)” value ([12]; listed as DPMI-δ(1,5,12)) of the same molecule?
A: 52%

Q: What about the “CD (% helicity)” value ([12]; listed as stitched peptide) of the same molecule?
A: 52%

Q: With CC(=O)N[C@@H](CC(C)C)C(=O)N[C@H](C(=O)N[C@@H](Cc1ccccc1)C(=O)N[C@]1(C)CCCCCCC=CCCC[C@@](C)(C(=O)N[C@@H](CO)C(=O)N[C@@H](C)C(=O)N[C@@H](C)C(N)=O)NC(=O)[C@H](CC2CCC2)NC(=O)[C@H](CCC(N)=O)NC(=O)[C@H](C)NC(=O)[C@H](Cc2c[nH]c3ccccc23)NC(=O)[C@H](Cc2ccc(O)cc2)NC(=O)[C@H](CCC(=O)O)NC1=O)[C@@H](C)O [ATSP-7041, reference compound] as the molecule, how does the EC50 [6] read?
A: 1.8 µM

Q: What about the EC50 [7] of the same molecule?
A: ≥ 50 µM

Q: And the “Western blot: stabilization of MDM2 and activation of p53” value [9]?
A: Stabilization of MDM2 and activation of p53

B1: ^DPMI-δ(5-9) (peptide)
peptide: [dT][dA][dTrp(6-F)][dY][R5][dN][dPhe(4-CF3)][dE][R5][dL][dL][dR]-NH2
modifications: staple 5-9
Q: Which Kd [13] does the source give for B1 here?
A: > 10000 nM

Q: And the P53 activity EC50 (µM) (2% FBS) 16 H [14]?
A: > 50 µM
